Laboratory results from patent US4416884A, “Piperazinylbenzoheterocyclic compounds” (Otsuka Pharmaceutical Co., Ltd., priority 1978, dated 1983).
Values after ≈ are worked out from the molar mass of the structure shown. Read-outs that look alike come from different tables or passages of the source.

Tests used:
[1] = test system: Escherichia Coli NIHJ JC-2 (IFO 12734); assay: antimicrobial activity, serial dilution method on agar plate; format: cell-based; details: Escherichia coli, read-out: Minimum Inhibitory Concentration
Summary of the method: (§1)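 Two inoculum levels used: 1×10^8 cells/ml (O.D. 660 mμ = 0.07–0.16) and a diluted 1×10^6 cells/ml preparation. Minimum inhibitory concentrations in mcg/ml read from serial dilution on Heart Infusion agar plates.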

[2] = test system: Hafnia alvei IFO 3731; assay: as above; format: cell-based
Summary of the method: as §1

[3] = test system: Pseudomonas aeruginosa ATCC 10145; assay: as above; format: cell-based
Summary of the method: as §1

[4] = test system: Pseudomonas aeruginosa NCTC 10490; assay: as above; format: cell-based
Summary of the method: as §1

[5] = test system: Pseudomonas putida IFO 13696; assay: as above; format: cell-based
Summary of the method: as §1

[6] = test system: Streptococcus pneumoniae Type II; assay: as above; format: cell-based
Summary of the method: as §1

[7] = test system: Streptococcus pneumoniae Type I; assay: as above; format: cell-based
Summary of the method: as §1

[8] = test system: Yersinia enterocolitica 0-5; assay: as above; format: cell-based
[9] = test system: Aeromonas hydrophila IFO 12658; assay: antimicrobial activity on bacteria which cause infectious diseases in fish; format: cell-based
Method: (§2) The antimicrobial activity of the following test compounds on various test organisms listed below was determined by the serial dilution method on agar plate (Heart Infusion agar produced by Difco Co.) (see CHEMOTHERAPY 22, pp. 1126-1128 (1974)), and the minimum inhibitory concentrations (mcg/ml) obtained are shown in Table 1 below.
(§3) A sample of each test organism was prepared so that the population of the organism was 1×10^8 cells/ml (O.D. 660 mμ=0.07 to 0.16) and 1×10^6 cells/ml (which was obtained by diluting the above 1×10^8 cells/ml preparation).
(§4) In the same manner as above, the antimicrobial activity of the following compounds on various test organisms which cause infectious diseases in fish was determined.

[10] = test system: Aeromonas hydrophila IFO 12981; assay: as above; format: cell-based
Method: as §2, §3, §4

[11] = test system: Aeromonas salmonicida IFO 12659; assay: as above; format: cell-based
Method: as §2, §3, §4

[12] = test system: Aeromonas salmonicida IFO 12718; assay: as above; format: cell-based
Method: as §2, §3, §4

[13] = test system: Pseudomonas fluorescens IFO 12180; assay: as above; format: cell-based
Method: as §2, §3, §4

[14] = test system: Pseudomonas fluorescens IFO 12568; assay: as above; format: cell-based
Method: as §2, §3, §4

[15] = test system: Vibrio anguillarum IFO 12710; assay: as above; format: cell-based
Method: as §2, §3, §4

[16] = test system: Vibrio anguillarum IFO 13266; assay: as above; format: cell-based
Method: as §2, §3, §4

[17] = in vitro; details: human
Method: A 1/15 mol/l phosphate buffer was added to powder of Moni-Trol 1 (dehydrated preparation of human serum, a product of Midori Juji Co., Ltd.) to prepare a composition having the same serum protein concentration as natural human serum and this preparation was labeled "100% human serum", an aliquot of the "100% human serum" preparation was mixed with the same volume of the above buffer to prepare "50% human serum" and another aliquot was mixed with 4 times as much as its volume of the buffer to prepare "20% human serum".

[18] = test system: Test Organism 2 (Escherichia Coli NIHJ JC-2 (IFO 12734)); assay: influence of the addition of horse serum on the MIC; format: cell-based
[19] = test system: Test Organism 21 (Bacillus subtilis PCI 219); assay: as above; format: cell-based
[20] = ATCC10145, read-out: Minimum Inhibitory Concentration, inoculum 1 × 10^6 cells/ml
[21] = ATCC10145, read-out: Minimum Inhibitory Concentration, inoculum 1 × 10^8 cells/ml
[22] = NCTC10490, read-out: Minimum Inhibitory Concentration, inoculum 1 × 10^6 cells/ml
[23] = NCTC10490, read-out: Minimum Inhibitory Concentration, inoculum 1 × 10^8 cells/ml
[24] = read-out: Minimum Inhibitory Concentration, inoculum 1 × 10^6 cells/ml
[25] = read-out: Minimum Inhibitory Concentration, inoculum 1 × 10^8 cells/ml
[26] = Yersinia enterocolitica, 05, read-out: Minimum Inhibitory Concentration, inoculum 1 × 10^6 cells/ml
[27] = Yersinia enterocolitica, 05, read-out: Minimum Inhibitory Concentration, inoculum 1 × 10^8 cells/ml
[28] = IFO12658, inoculum 10^6, read-out: Minimum Inhibitory Concentration
[29] = IFO12658, inoculum 10^8, read-out: Minimum Inhibitory Concentration
[30] = IFO12981, inoculum 10^6, read-out: Minimum Inhibitory Concentration
[31] = IFO12981, inoculum 10^8, read-out: Minimum Inhibitory Concentration
[32] = IFO12659, inoculum 10^6, read-out: Minimum Inhibitory Concentration
[33] = IFO12659, inoculum 10^8, read-out: Minimum Inhibitory Concentration
[34] = IFO12718, inoculum 10^6, read-out: Minimum Inhibitory Concentration
[35] = IFO12718, inoculum 10^8, read-out: Minimum Inhibitory Concentration
[36] = read-out: Minimum Inhibitory Concentration, horse serum 0%, inoculum 10^6
[37] = read-out: Minimum Inhibitory Concentration, horse serum 0%, inoculum 10^8
[38] = read-out: Minimum Inhibitory Concentration, horse serum 10%, inoculum 10^6
[39] = read-out: Minimum Inhibitory Concentration, horse serum 10%, inoculum 10^8
[40] = read-out: Minimum Inhibitory Concentration, horse serum 20%, inoculum 10^6
[41] = read-out: Minimum Inhibitory Concentration, horse serum 20%, inoculum 10^8
[42] = read-out: Minimum Inhibitory Concentration, horse serum 40%, inoculum 10^6
[43] = read-out: Minimum Inhibitory Concentration, horse serum 40%, inoculum 10^8

`CCn1cc(C(=O)O)c(=O)c2ccc(C)nc21` [E] showed an MIC ([1]; inoculum 1 × 10^6 cells/ml) of 3.1 µg/mL (≈ 13.3 µM), an MIC ([1]; inoculum 1 × 10^8 cells/ml) of 3.1 µg/mL (≈ 13.3 µM) and an MIC ([2]; IFO3731, inoculum 1 × 10^6 cells/ml, read-out: Minimum Inhibitory Concentration) of 50 µg/mL (≈ 215 µM). The MIC ([2]; IFO3731, inoculum 1 × 10^8 cells/ml, read-out: Minimum Inhibitory Concentration) was 100 µg/mL (≈ 431 µM), the MIC [3, 20] was > 100 µg/mL and the MIC [3, 21] was > 100 µg/mL. The MIC [4, 22] was > 100 µg/mL, the MIC [4, 23] was > 100 µg/mL and the MIC ([5]; IFO13696, inoculum 1 × 10^6 cells/ml, read-out: Minimum Inhibitory Concentration) was 50 µg/mL (≈ 215 µM). For the same molecule, the MIC ([5]; IFO13696, inoculum 1 × 10^8 cells/ml, read-out: Minimum Inhibitory Concentration) was 100 µg/mL (≈ 431 µM), the MIC [6, 24] was > 100 µg/mL and the MIC [6, 25] was > 100 µg/mL. For the same molecule, the MIC [7, 24] was > 100 µg/mL, the MIC [7, 25] was > 100 µg/mL and the MIC [8, 26] was 1.6 µg/mL (≈ 6.89 µM). For the same molecule, the MIC [8, 27] was 3.1 µg/mL (≈ 13.3 µM), the MIC [9, 28] was 0.8 µg/mL (≈ 3.44 µM) and the MIC [9, 29] was 0.8 µg/mL (≈ 3.44 µM). The MIC [10, 30] was 0.2 µg/mL (≈ 0.861 µM), the MIC [10, 31] was 0.4 µg/mL (≈ 1.72 µM) and the MIC [11, 32] was 0.8 µg/mL (≈ 3.44 µM). It also gave an MIC [11, 33] of 0.8 µg/mL (≈ 3.44 µM), an MIC [12, 34] of 0.8 µg/mL (≈ 3.44 µM) and an MIC [12, 35] of 0.8 µg/mL (≈ 3.44 µM). For the same molecule, the MIC ([13]; IFO12180, inoculum 10^6, read-out: Minimum Inhibitory Concentration) was 50 µg/mL (≈ 215 µM), the MIC ([13]; IFO12180, inoculum 10^8, read-out: Minimum Inhibitory Concentration) was > 50 µg/mL and the MIC ([14]; IFO12568, inoculum 10^6, read-out: Minimum Inhibitory Concentration) was 50 µg/mL (≈ 215 µM). For the same molecule, the MIC ([14]; IFO12568, inoculum 10^8, read-out: Minimum Inhibitory Concentration) was > 50 µg/mL, the MIC ([15]; IFO12710, inoculum 10^6, read-out: Minimum Inhibitory Concentration) was 0.8 µg/mL (≈ 3.44 µM) and the MIC ([15]; IFO12710, inoculum 10^8, read-out: Minimum Inhibitory Concentration) was 1.6 µg/mL (≈ 6.89 µM). It also gave an MIC ([16]; IFO13266, inoculum 10^6, read-out: Minimum Inhibitory Concentration) of 0.8 µg/mL (≈ 3.44 µM), an MIC ([16]; IFO13266, inoculum 10^8, read-out: Minimum Inhibitory Concentration) of 1.6 µg/mL (≈ 6.89 µM) and a fraction unbound at 2 h ([17]; 10% human serum) of 0.528. It also gave a fraction unbound at 2 h ([17]; 10% human serum, Inactivation Ratio) of 0.587, a fraction unbound at 2 h ([17]; 20% human serum) of 0.608 and a fraction unbound at 2 h ([17]; 20% human serum, Inactivation Ratio) of 0.565. For the same molecule, the fraction unbound at 2 h ([17]; 50% human serum) was 0.376, the fraction unbound at 2 h ([17]; 50% human serum, Inactivation Ratio) was 0.387 and the fraction unbound at 2 h ([17]; 100% human serum) was 0.24. For the same molecule, the fraction unbound at 2 h ([17]; 100% human serum, Inactivation Ratio) was 0.387.

`CC1Cc2c(N3CCNCC3)ccc3c(=O)c(C(=O)O)cn1c23` (centres unmarked) [C] showed an MIC [1] of 1.6 µg/mL (≈ 5.11 µM), an MIC ([2]; IFO3731, read-out: Minimum Inhibitory Concentration, inoculum 1 × 10^6 cells/ml) of 0.8 µg/mL (≈ 2.55 µM) and an MIC ([2]; IFO3731, read-out: Minimum Inhibitory Concentration, inoculum 1 × 10^8 cells/ml) of 1.6 µg/mL (≈ 5.11 µM). The MIC [3, 20] was 6.3 µg/mL (≈ 20.1 µM), the MIC [3, 21] was 6.3 µg/mL (≈ 20.1 µM) and the MIC [4, 22] was 3.1 µg/mL (≈ 9.89 µM). The MIC [4, 23] was 6.3 µg/mL (≈ 20.1 µM), the MIC ([5]; IFO13696, read-out: Minimum Inhibitory Concentration, inoculum 1 × 10^6 cells/ml) was 3.1 µg/mL (≈ 9.89 µM) and the MIC ([5]; IFO13696, read-out: Minimum Inhibitory Concentration, inoculum 1 × 10^8 cells/ml) was 3.1 µg/mL (≈ 9.89 µM). For the same molecule, the MIC [6, 24] was 50 µg/mL (≈ 160 µM), the MIC [6, 25] was 100 µg/mL (≈ 319 µM) and the MIC [7, 24] was 50 µg/mL (≈ 160 µM). The MIC [7, 25] was 100 µg/mL (≈ 319 µM), the MIC [8, 26] was 1.6 µg/mL (≈ 5.11 µM) and the MIC [8, 27] was 1.6 µg/mL (≈ 5.11 µM). It also gave an MIC [9, 28] of 0.2 µg/mL (≈ 0.638 µM), an MIC [9, 29] of 0.4 µg/mL (≈ 1.28 µM) and an MIC [10, 30] of 0.2 µg/mL (≈ 0.638 µM). For the same molecule, the MIC [10, 31] was 0.4 µg/mL (≈ 1.28 µM), the MIC [11, 32] was 0.2 µg/mL (≈ 0.638 µM) and the MIC [11, 33] was 0.4 µg/mL (≈ 1.28 µM). For the same molecule, the MIC [12, 34] was 0.4 µg/mL (≈ 1.28 µM), the MIC [12, 35] was 0.4 µg/mL (≈ 1.28 µM) and the MIC ([13]; IFO12180, read-out: Minimum Inhibitory Concentration) was 3.1 µg/mL (≈ 9.89 µM). The MIC ([14]; IFO12568, read-out: Minimum Inhibitory Concentration, inoculum 10^6) was 25 µg/mL (≈ 79.8 µM), the MIC ([14]; IFO12568, read-out: Minimum Inhibitory Concentration, inoculum 10^8) was 50 µg/mL (≈ 160 µM) and the MIC ([15]; IFO12710, read-out: Minimum Inhibitory Concentration, inoculum 10^6) was 1.6 µg/mL (≈ 5.11 µM). It also gave an MIC ([15]; IFO12710, read-out: Minimum Inhibitory Concentration, inoculum 10^8) of 3.1 µg/mL (≈ 9.89 µM), an MIC ([16]; IFO13266, read-out: Minimum Inhibitory Concentration, inoculum 10^6) of 0.2 µg/mL (≈ 0.638 µM) and an MIC ([16]; IFO13266, read-out: Minimum Inhibitory Concentration, inoculum 10^8) of 0.4 µg/mL (≈ 1.28 µM). It also gave an MIC [18, 36] of 1.6 µg/mL (≈ 5.11 µM), an MIC [18, 37] of 1.6 µg/mL (≈ 5.11 µM) and an MIC [18, 38] of 1.6 µg/mL (≈ 5.11 µM). For the same molecule, the MIC [18, 39] was 1.6 µg/mL (≈ 5.11 µM), the MIC [18, 40] was 1.6 µg/mL (≈ 5.11 µM) and the MIC [18, 41] was 0.8 µg/mL (≈ 2.55 µM). The MIC [18, 42] was 0.4 µg/mL (≈ 1.28 µM), the MIC [18, 43] was 0.4 µg/mL (≈ 1.28 µM) and the MIC [19, 36] was 1.6 µg/mL (≈ 5.11 µM). It also gave an MIC [19, 37] of 3.1 µg/mL (≈ 9.89 µM), an MIC [19, 38] of 1.6 µg/mL (≈ 5.11 µM) and an MIC [19, 39] of 1.6 µg/mL (≈ 5.11 µM). For the same molecule, the MIC [19, 40] was 1.6 µg/mL (≈ 5.11 µM), the MIC [19, 41] was 1.6 µg/mL (≈ 5.11 µM) and the MIC [19, 42] was 0.4 µg/mL (≈ 1.28 µM). It also gave an MIC [19, 43] of 0.4 µg/mL (≈ 1.28 µM).
